The results in this text go back to ChEMBL document CHEMBL1201862, “PubChem BioAssay data set” (2004).

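Compound exposure: 48 hours, 5 concentrations, 96-well plates. GI50 marks 50% less growth.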 Activity calls are given as the source filed them. No stated cut-off is given here; in the data, active = GI50 up to about 1.1 µM and inactive = higher. Some results are limits rather than exact numbers.

Among the test systems are BT-549; NCI-H460; OVCAR-3; LOX IMVI; HCT-15; COLO 205; SK-OV-3; MDA-MB-231; SK-MEL-28; PC-3; OVCAR-8; SN12C; MCF7; K562; MDA-MB-435; MOLT-4; SF-268; T47D; SF-539; SR.
Common to all, as to test: NCI-60 cell line screen, 48 h

Take `CC(=O)Nc1c(C)cc2c(nc3n2CCC3OC(C)=O)c1[N+](=O)[O-]` (stereo not given): the GI50 with BT-549 was > 100 µM (inactive); with NCI-H460 it was > 100 µM (inactive); in the assay with OVCAR-3 it was > 100 µM (inactive); in the assay with LOX IMVI, > 100 µM (inactive); in the assay with HCT-15, more than 100 µM; in the assay on COLO 205, > 100 µM (inactive). For the same compound, the GI50 in the assay with SK-OV-3, in the assay with MDA-MB-231, with SK-MEL-28, in the assay on PC-3, in the assay with OVCAR-8 and with SN12C was > 100 µM (inactive) each time. The GI50 with MCF7, in the assay with K562, in the assay on MDA-MB-435, with MOLT-4, with SF-268 and in the assay with T47D was > 100 µM (inactive) each time. Also, the GI50 in the assay with SF-539 and with SR was > 100 µM (inactive) in each case.
Turning to `CCCc1cc(-c2ccc(-c3cc(CCC)c(C=O)[nH]3)s2)[nH]c1C=O`, the GI50 in the assay with BT-549 was 25.9 µM (inactive); in the assay on NCI-H460, 5.2 µM (inactive); with OVCAR-3 it was 12.4 µM (inactive); in the assay with LOX IMVI it was 5.89 µM (inactive); with HCT-15, 8.61 µM; in the assay on COLO 205 it was 4.83 µM (inactive). In addition, the GI50 is > 56.9 µM (inactive) in the assay with SK-OV-3; > 100 µM (inactive) with MDA-MB-231; 63 µM (inactive) in the assay on SK-MEL-28; 26.5 µM (inactive) with PC-3; > 49.1 µM (inactive) in the assay with OVCAR-8; > 69.2 µM (inactive) in the assay on SN12C. Further, the GI50 in the assay on MCF7 is 64.3 µM (inactive); in the assay with K562, 5.48 µM (inactive); in the assay with MDA-MB-435, 15.5 µM (inactive); in the assay with MOLT-4, 2.9 µM (inactive); with SF-268 it was > 84.7 µM (inactive); in the assay on T47D, 6.05 µM (inactive). Moreover, the values for the GI50 in the assay on SF-539 and in the assay with SR were > 100 µM (inactive) and 2.14 µM (inactive), respectively.
`Cn1c(-c2ccc[se]2)ccc1-c1ccc(C=O)[se]1`: the GI50 in the assay with BT-549 was 17.1 µM (inactive); in the assay on NCI-H460 it was 0.308 µM (active); in the assay on OVCAR-3, 0.366 µM (active); with LOX IMVI it was 8.99 µM (inactive); in the assay on HCT-15 it was 8.15 µM; with COLO 205 it was 16.3 µM (inactive). The GI50 was 16.6 µM (inactive) with SK-OV-3; 35.9 µM (inactive) in the assay on MDA-MB-231; 42.1 µM (inactive) with SK-MEL-28; 56.9 µM (inactive) with PC-3; 6.98 µM (inactive) in the assay on OVCAR-8; 14.9 µM (inactive) in the assay with SN12C. Also, the GI50 in the assay with MCF7 is 0.124 µM (active); with K562, 0.323 µM (active); in the assay with MDA-MB-435 it was 11.4 µM (inactive); with MOLT-4, 7.43 µM (inactive); with SF-268 it was 16.4 µM (inactive); with T47D, 0.325 µM (active). In addition, the values for the GI50 in the assay with SF-539 and in the assay on SR were 3.89 µM (inactive) and 7.45 µM (inactive), respectively.
Consider `O=C(Sc1c(-c2ccccc2)c(=O)n(-c2ccccc2)c(=S)n1-c1ccccc1)c1ccco1`, for which the GI50 in the assay with BT-549 was > 100 µM (inactive); with NCI-H460 it was > 100 µM (inactive); in the assay with OVCAR-3, 99.3 µM (inactive); in the assay on LOX IMVI, > 100 µM (inactive); in the assay on HCT-15, more than 89.1 µM; with COLO 205 it was > 100 µM (inactive). The GI50 in the assay on SK-OV-3, in the assay on MDA-MB-231, with SK-MEL-28, in the assay on PC-3, with OVCAR-8 and in the assay on SN12C was > 100 µM (inactive) in each case. Moreover, the GI50 was > 100 µM (inactive) in the assay with MCF7; 34 µM (inactive) in the assay with K562; > 100 µM (inactive) in the assay on MDA-MB-435; 27.5 µM (inactive) in the assay with MOLT-4; > 100 µM (inactive) in the assay on SF-268; > 100 µM (inactive) with T47D. The GI50 in the assay with SF-539 is > 100 µM (inactive); with SR, 29.2 µM (inactive).
On to `O=C(NCCCc1cn[nH]c(=O)n1)c1cccc2nc3ccccc3nc12`, for which the GI50 with BT-549 was > 100 µM (inactive); in the assay on NCI-H460, > 100 µM (inactive); with OVCAR-3, > 100 µM (inactive); in the assay with LOX IMVI, > 100 µM (inactive); in the assay on HCT-15, more than 100 µM; in the assay with COLO 205 it was > 100 µM (inactive). In addition, the GI50 is > 100 µM (inactive) in the assay on SK-OV-3; 27.8 µM (inactive) in the assay with MDA-MB-231; > 100 µM (inactive) in the assay on SK-MEL-28; > 100 µM (inactive) in the assay on PC-3; 61.9 µM (inactive) in the assay on OVCAR-8; 86.3 µM (inactive) in the assay with SN12C. For the same compound, the GI50 with MCF7 is > 100 µM (inactive); in the assay on K562 it was > 100 µM (inactive); with MDA-MB-435, > 100 µM (inactive); in the assay on MOLT-4, 33.3 µM (inactive); with SF-268 it was 91.8 µM (inactive); in the assay on T47D it was > 100 µM (inactive). In addition, the GI50 was > 100 µM (inactive) with SF-539 and 40.6 µM (inactive) in the assay on SR.
As to `O=C1c2c(ccc3c2CCCC3)CC1Cc1ccc2c(c1)CCCC2` (stereo not given), the GI50 in the assay with BT-549 is > 100 µM (inactive); in the assay with NCI-H460, 38.5 µM (inactive); in the assay on OVCAR-3 it was > 100 µM (inactive); with LOX IMVI it was 63.8 µM (inactive); with HCT-15, 36.1 µM; in the assay on COLO 205 it was 30.8 µM (inactive). Also, the GI50 was > 100 µM (inactive) with SK-OV-3; 37.2 µM (inactive) with MDA-MB-231; > 100 µM (inactive) in the assay with SK-MEL-28; 45.5 µM (inactive) with PC-3; 88.3 µM (inactive) with OVCAR-8; 45 µM (inactive) in the assay with SN12C. The GI50 in the assay on MCF7 is 27.2 µM (inactive); in the assay on K562, 36.1 µM (inactive); in the assay on MDA-MB-435, 34 µM (inactive); in the assay with MOLT-4 it was 35 µM (inactive); in the assay on SF-268 it was > 100 µM (inactive); in the assay on T47D, 0.787 µM (active). For the same compound, the GI50 in the assay on SF-539 was > 100 µM (inactive); with SR it was 9.08 µM (inactive).
